The source of these data is ChEMBL document CHEMBL5154737, “Semisynthesis and biological evaluation of (+)-sclerotiorin derivatives as antitumor agents for the treatment of hepatocellular carcinoma” (Eur J Med Chem, 2022).

Each structure is given as a SMILES string. pIC50: −log10 of the molar value. Counter-ions that a name gives are not always drawn.

The test system of data set [1] is Bel-7402. The data set can be described thus: Cytotoxicity against human Bel-7402 cells assessed as inhibition rate at 5 uM incubated for 72 hrs by MTT assay relative to control. Format: functional. Further details: scale not given: the % may be the effect or the level left. (Tetrazolium dyes change colour on reduction, which living cells bring about.)
Data set [2] in a line: Cytotoxicity against human HepG2 cells assessed as reduction in cell viability incubated for 72 hrs by MTT assay. Format: toxicity, cell-based.
Data set [3] has as its system Bel-7402. The data set can be described thus: Cytotoxicity against human Bel-7402 cells assessed as reduction in cell viability incubated for 72 hrs by MTT assay. Format: functional, cell-based. The conditions noted are these: Bel-7402, 72 h.
A further data set concerns ECa-109 cell line. Description: Cytotoxicity against human Eca-109 cells assessed as reduction in cell viability incubated for 72 hrs by MTT assay. Format: functional, cell-based. The conditions noted are these: ECa-109, 72 h.
The subject of a further data set is HeLa. The data set can be described thus: Cytotoxicity against human HeLa cells assessed as reduction in cell viability incubated for 72 hrs by MTT assay. Format: functional, cell-based.
For another data set, the system named is PANC-1. The data set can be described thus: Cytotoxicity against human PANC-1 cells assessed as reduction in cell viability incubated for 72 hrs by MTT assay. The conditions noted are these: PANC-1, 72 h. Format: functional, cell-based.
A short description of data set [4]: Cytotoxicity against human Biu-87 cells assessed as reduction in cell viability incubated for 72 hrs by MTT assay. It is filed as functional, cell-based. The conditions noted are these: BIU87, 72 h.
Data set [5] deals with Bel-7402. Description: cells. The conditions noted are these: Homo sapiens, Bel-7402, 24 h, read-out: Activity.

As to `CC[C@H](C)/C=C(C)/C=C/C1=CC2=C(Cl)C(=O)[C@](C)(O)C(=O)C2=CN1c1cc(OC)cc(OC)c1`, the Activity in the data set with Bel-7402 [1] is reported as 11.14%. Regarding `CC[C@H](C)/C=C(C)/C=C/C1=CC2=C(Cl)C(=O)[C@](C)(OC(C)=O)C(=O)C2=CN1Cc1ccc(C(F)(F)F)cn1`, the Activity with Bel-7402 [1] is reported as 21.49%.

On to `CC[C@H](C)/C=C(C)/C=C/C1=CC2=C(Cl)C(=O)[C@](C)(OC(C)=O)C(=O)C2=CN1c1ccc(OC)c(OC)c1`, for which the Activity with Bel-7402 [1] is listed as 8.16%. Still for that read-out and setting: as for `CC[C@H](C)/C=C(C)/C=C/C1=CC2=C(Cl)C(=O)[C@](C)(O)C(=O)C2=CN1c1cc(OC)c(OC)c(OC)c1`, the figure is 11.27%. On the same count and under the same terms, with `CC[C@H](C)/C=C(C)/C=C/C1=CC2=C(Cl)C(=O)[C@](C)(O)C(=O)C2=CN1c1ccc(OC)c(OC)c1` the figure was 5.75%; with `C#CCN1C=C2C(=O)[C@@](C)(OC(C)=O)C(=O)C(Cl)=C2C=C1/C=C/C(C)=C/[C@@H](C)CC`, 6.81%. Still for that read-out and setting: with `CC[C@H](C)/C=C(C)/C=C/C1=CC2=C(Cl)C(=O)[C@](C)(OC(C)=O)C(=O)C2=CN1c1cc(OC)c(OC)c(OC)c1` the figure was 9.61%. On to `CC[C@H](C)/C=C(C)/C=C/C1=CC2=C(Cl)C(=O)[C@](C)(OC(C)=O)C(=O)C2=CN1c1ccc(OC(F)(F)F)cc1`, for which the Activity with Bel-7402 [1] came out at 22.81%. Take `CC[C@H](C)/C=C(C)/C=C/C1=CC2=C(Cl)C(=O)[C@](C)(O)C(=O)C2=CN1Cc1ccc(OC)cc1`: the Activity in the data set on Bel-7402 [1] is recorded as 36.51%. On the same count and under the same terms, with `CC[C@H](C)/C=C(C)/C=C/C1=CC2=C(Cl)C(=O)[C@](C)(OC(C)=O)C(=O)C2=CN1c1cc(OC)cc(OC)c1` the figure was 7.94%; with `CC[C@H](C)/C=C(C)/C=C/C1=CC2=C(Cl)C(=O)[C@](C)(O)C(=O)C2=CN1CCc1cccc(C(F)(F)F)c1`, 45.76%; with `CC[C@H](C)/C=C(C)/C=C/C1=CC2=C(Cl)C(=O)[C@](C)(O)C(=O)C2=CN1c1ccc(C(F)(F)F)cc1`, 63.16%. Take `CC[C@H](C)/C=C(C)/C=C/C1=CC2=C(Cl)C(=O)[C@](C)(OC(C)=O)C(=O)C2=CN1c1ccc(OC)cc1`: in the data set with Bel-7402 [1], the Activity is on record as 7.45%. On the same count and under the same terms, with `CC[C@H](C)/C=C(C)/C=C/C1=CC2=C(Cl)C(=O)[C@](C)(OC(C)=O)C(=O)C2=CN1Cc1ccc(OC(F)(F)F)cc1` the figure was 27.46%; with `CC[C@H](C)/C=C(C)/C=C/C1=CC2=C(Cl)C(=O)[C@](C)(OC(C)=O)C(=O)C2=CN1Cc1ccc(OC)cc1`, 6.58%. On to `CC[C@H](C)/C=C(C)/C=C/C1=CC2=C(Cl)C(=O)[C@](C)(O)C(=O)C2=CN1Cc1ccc(C)cc1`, for which the Activity in the data set on Bel-7402 [1] was 20.52%.

Regarding `CC[C@H](C)/C=C(C)/C=C/C1=CC2=C(Cl)C(=O)[C@](C)(OC(C)=O)C(=O)C2=CN1CCc1cccc(C(F)(F)F)c1`, the Activity with Bel-7402 [1] was 35.93%. Take `CC[C@H](C)/C=C(C)/C=C/C1=CC2=C(Cl)C(=O)[C@](C)(O)C(=O)C2=CN1Cc1ccc(C(F)(F)F)nc1`: the Activity in the data set on Bel-7402 [1] was 12.09%.

`CC[C@H](C)/C=C(C)/C=C/C1=CC2=C(Cl)C(=O)[C@](C)(O)C(=O)C2=CN1Cc1ccc(C(F)(F)F)cn1`: the Activity with Bel-7402 [1] was 10.55%.

As to `COc1cccc2c1C(=O)c1c(O)c3c(c(O)c1C2=O)C[C@@](O)(C(=O)CO)C[C@@H]3O[C@H]1C[C@H](N)[C@H](O)[C@H](C)O1` [DOXORUBICIN HYDROCHLORIDE], in data set [2], the IC50 at 72 h was determined as 450 nM. For the same compound, the pIC50 with Bel-7402 [3] is 6.43; with ECa-109 cell line it was 6.70; in the data set on HeLa, 6.22. Consider `CC[C@H](C)/C=C(C)/C=C/C1=CC2=C(Cl)C(=O)[C@](C)(O)C(=O)C2=CN1c1ccc(OC(F)(F)F)cc1`, for which the Activity in the data set with Bel-7402 [1] came out at 43.16%. `CC[C@H](C)/C=C(C)/C=C/C1=CC2=C(Cl)C(=O)[C@](C)(O)C(=O)C2=CN1Cc1ccc(C(F)(F)F)cc1`: the IC50 at 72 h in data set [2] is 3360 nM. The pIC50 is 5.84 in the data set on PANC-1; 5.51 in data set [4]; 5.84 with Bel-7402 [3]; 5.83 in the data set with ECa-109 cell line; 5.62 in the data set with HeLa. The Activity in the data set with Bel-7402 [1] is recorded as 81.73%.

Turning to `CC[C@H](C)/C=C(C)/C=C/C1=CC2=C(Cl)C(=O)[C@](C)(OC(C)=O)C(=O)C2=CN1Cc1ccc(C(F)(F)F)nc1`, the Activity in the data set on Bel-7402 [1] turned out to be 21.53%. Same read-out and setting: as for `CC[C@H](C)/C=C(C)/C=C/C1=CC2=C(Cl)C(=O)[C@](C)(OC(C)=O)C(=O)C2=CN1Cc1ccc(C(F)(F)F)cc1`, the figure is 44.16%. `N#CC(=C(/N)Sc1ccccc1N)/C(C#N)=C(\N)Sc1ccccc1N`: the viability at 20 µM in the data set on Bel-7402 [5] turned out to be 88.3%. In the case of `C=CCN1C=C2C(=O)[C@@](C)(OC(C)=O)C(=O)C(Cl)=C2C=C1/C=C/C(C)=C/[C@@H](C)CC`, the Activity with Bel-7402 [1] was found to be 8.65%.

In the case of `CC[C@H](C)/C=C(C)/C=C/C1=CC2=C(Cl)C(=O)[C@](C)(OC(C)=O)C(=O)C2=CN1c1ccc(C(F)(F)F)cc1`, the Activity in the data set on Bel-7402 [1] is on record as 28.9%. Same read-out and setting: as for `CC[C@H](C)/C=C(C)/C=C/C1=CC2=C(Cl)C(=O)[C@](C)(OC(C)=O)C(=O)C2=CN1Cc1ccc(C)cc1`, the figure is 16.2%.

By IC50 is commonly meant the concentration at which inhibition is half-maximal. By pIC50 is commonly meant the IC50 on a negative log10 scale, so that one unit is a factor of ten.
